Data as given in patent US20260001928A1 (CORTERIA PHARMACEUTICALS, priority 2022, published 2026).
pEC50: −log10 of the molar value. *1 amine or outer side, *2 acyl side, *3 side chain or, on linkers, in order; H or OH if unused. Where a SMILES comes first, the peptide text is derived from it. Side-chain parts run from the residue outwards. [ ]: non-standard residue; d: D form. The star is where a group is joined. C20 diacid = O=C(O)CCCCCCCCCCCCCCCCCCC(=O)*; C16 diacid = O=C(O)CCCCCCCCCCCCCCC(=O)*; γGlu = O=C(O)[C@H](CCC(=O)[*:2])N[*:1]; Pentanoyl = CCCCC(=O)*; AEEA = NCCOCCOCC(=O)O; Aib = CC(C)(N)C(=O)O

Key:
CFR1R receptor = biological target: T1, CFR1R receptor (Homo sapiens, UniProt P34998); experiment: Activity at anti-target CFR1R receptor, cAMP assay in CRF1R-overexpression CHO-K1 cells; format: cell-based; details: 100% = Sauvagine at 100 nM; for pEC50: cAMP
T1 construct: host or cells: CHO-K1 (clone 2)
T1 sequence (P34998 24-415): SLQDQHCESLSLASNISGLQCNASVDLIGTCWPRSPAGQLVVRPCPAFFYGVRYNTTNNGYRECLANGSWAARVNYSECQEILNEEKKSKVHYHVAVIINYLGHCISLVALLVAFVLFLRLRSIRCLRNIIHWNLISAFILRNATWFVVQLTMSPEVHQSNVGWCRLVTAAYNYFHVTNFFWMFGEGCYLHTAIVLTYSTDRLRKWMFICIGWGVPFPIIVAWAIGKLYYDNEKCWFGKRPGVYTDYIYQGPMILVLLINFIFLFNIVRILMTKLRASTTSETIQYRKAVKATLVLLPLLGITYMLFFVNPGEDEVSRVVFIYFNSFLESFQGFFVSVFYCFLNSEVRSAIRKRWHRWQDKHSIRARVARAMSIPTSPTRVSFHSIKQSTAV
Method in brief: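 Uses frozen stocks of CHO-K1 clone 2 cells overexpressing human CRF1R, plated at 4000 cells/well final, with cAMP measured by the same protocol as the TeloHAEC line. Full-activation control: 100 nM Sauvagine.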

Sprague Dawley rats = experiment: Effect on systolic blood pressure, telemetry in Sprague Dawley rats; format: in vivo, rat; details: 0.1 mg/kg SC
Description: The effect of the compounds on systolic blood pressure was determined in telemetry studies in Sprague Dawley rats at a dosage of 0.1 mg/kg SC.
The rats were previously implanted with a telemetry device (DSI, Saint-Paul, USA, HD-S10, HD-S11 or HD S21) and allowed to recover for a minimum period of 2 weeks before treatment with vehicle or the different peptides. Blood pressure (BP) was recorded through a catheter inserted into the abdominal aorta. The device body was placed in the abdomen. The animals were allowed to recover from surgery for at least 10 days before the first administration of test drug or vehicle.
The chronically instrumented rats of the telemetry studies were individually housed immediately after surgery and then housed in pairs with a non-instrumented companion after recovery.
Systolic blood pressure was recorded for one hour before treatment (basal period). Thereafter, the subcutaneous administration of the test compound or its vehicle was performed, under continuous recording of the signal up to 48 hours, analysed and expressed as % change from baseline.
Representative data are presented in Table 13 below, in which “Duration of action” indicates the last time point for which an effect on BP was still observed (n=2 animals/peptide)

human CRF2a receptor = biological target: T2, human CRF2a receptor (Homo sapiens, UniProt Q13324); experiment: Activity at human CRF2a receptor, cAMP functional assay in TeloHEAC cells; format: cell-based; details: TeloHEAC cells stably expressing human CRF2a receptor, relative to urocortin 2 (100 nM = 100%)
T2 construct: expressed in transfected cells; host or cells: TeloHEAC cells
T2 sequence (Q13324 1-411): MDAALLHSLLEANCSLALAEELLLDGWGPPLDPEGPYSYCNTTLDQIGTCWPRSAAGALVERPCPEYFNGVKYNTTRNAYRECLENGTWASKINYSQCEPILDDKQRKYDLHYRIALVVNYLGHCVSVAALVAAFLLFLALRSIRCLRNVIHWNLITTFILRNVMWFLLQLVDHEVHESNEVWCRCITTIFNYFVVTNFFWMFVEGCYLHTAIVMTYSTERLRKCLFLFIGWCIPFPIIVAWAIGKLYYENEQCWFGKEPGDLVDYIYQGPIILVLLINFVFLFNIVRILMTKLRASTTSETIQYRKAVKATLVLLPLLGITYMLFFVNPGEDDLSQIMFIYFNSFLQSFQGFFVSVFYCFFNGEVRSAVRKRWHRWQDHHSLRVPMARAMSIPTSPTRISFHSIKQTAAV
Method in brief: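 TeloHEAC cells stably expressing human CRF2a (10000 cells/well) were treated with 16-point 1:2 compound dilutions in HBSS/20 mM HEPES with IBMX for 30 min at 37° C. cAMP was read by HTRF (665/620 nm ratio). EC50 was the concentration giving 50% activation, with 100 nM urocortin 2 set as 100%.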

| Emax (% I) (CFR1R receptor; listed as 10) | pEC50 (human CRF2a receptor) | Emax (% I) (CFR1R receptor) | pEC50 (CFR1R receptor) | SMILES | Systolic blood pressure (Mean) % change from baseline, 8 h (Sprague Dawley rats; 8 h, n=2) | Systolic blood pressure (Mean) % change from baseline, 12 h (Sprague Dawley rats; 12 h, n=2) | Systolic blood pressure (Mean) % change from baseline, 24 h (Sprague Dawley rats; 24 h, n=2) | Duration of action (Sprague Dawley rats; last time point with an effect on BP still observed) |
| --- | --- | --- | --- | --- | --- | --- | --- | --- |
| 26 % I |  |  |  | CC[C@H](C)[C@H](NC(C)=O)C(=O)N[C@H](C(=O)N[C@@H](CC(C)C)C(=O)N[C@@H](CO)C(=O)N[C@@H](CC(C)C)C(=O)N[C@@H](CC(=O)O)C(=O)N[C@@H](C(=O)N1CCC[C@H]1C(=O)N[C@H](C(=O)N[C@@H](CCCCN)C(=O)N[C@@H](CC(C)C)C(=O)N[C@@H](CCCCNC(=O)CC[C@H](NC(=O)CCCCCCCCCCCCCCC(=O)O)C(=O)O)C(=O)N[C@@H](CCCCN)C(=O)N[C@H](C(=O)N[C@@H](CC(C)C)C(=O)N[C@@H](CC(C)C)C(=O)N[C@@H](CCC(=O)O)C(=O)N[C@@H](CCC(N)=O)C(=O)N[C@@H](CCC(=O)O)C(=O)N[C@@H](CCCCN)C(=O)N[C@@H](CCC(N)=O)C(=O)N[C@@H](CCCCN)C(=O)N[C@@H](CCCCN)C(=O)N[C@@H](CCC(N)=O)C(=O)N[C@@H](CCCNC(=N)N)C(=O)N[C@@H](CCC(=O)O)C(=O)N[C@@H](CCC(N)=O)C(=O)N[C@@H](C)C(=O)N[C@@H](CCC(=O)O)C(=O)N[C@H](C(=O)N[C@@H](CC(N)=O)C(=O)N[C@@H](CCC(=O)O)C(=O)N[C@@H](CCC(N)=O)C(=O)N[C@H](C(=O)N[C@@H](CC(C)C)C(=O)N[C@@H](C)C(=O)N[C@@H](CCC(N)=O)C(=O)N[C@H](C(N)=O)C(C)C)[C@@H](C)CC)[C@@H](C)O)[C@@H](C)CC)[C@@H](C)CC)C(C)C)C(C)C [SEQ ID No. 56, reference compound] (Ac-IVLSLD[dV]PIKLK([γGlu-C16 diacid])KILLEQEKQKKQREQAETNEQILAQV-NH2) | −24% | −11% | 2% | 18 h |
|  | 9.72 | 62 % I |  | CCCCC(=O)N[C@H](C(=O)N[C@@H](CC(C)C)C(=O)N[C@@H](CO)C(=O)N[C@@H](CC(C)C)C(=O)N[C@@H](CC(=O)O)C(=O)N[C@@H](C(=O)N1CCC[C@H]1C(=O)N[C@H](C(=O)NCC(=O)N[C@@H](CC(C)C)C(=O)N[C@@H](CCCCNC(=O)CC[C@H](NC(=O)CCCCCCCCCCCCCCCCCCC(=O)O)C(=O)O)C(=O)N[C@@H](CCCCN)C(=O)N[C@H](C(=O)N[C@@H](CC(C)C)C(=O)N[C@@H](CC(C)C)C(=O)N[C@@H](CCC(=O)O)C(=O)N[C@@H](CCC(N)=O)C(=O)N[C@@H](CCC(=O)O)C(=O)N[C@@H](CCCCN)C(=O)N[C@@H](CCC(N)=O)C(=O)N[C@@H](CCCCN)C(=O)N[C@@H](CCCCN)C(=O)N[C@@H](CCC(N)=O)C(=O)N[C@@H](CCCNC(=N)N)C(=O)N[C@@H](CCC(=O)O)C(=O)N[C@@H](CCC(N)=O)C(=O)N[C@@H](C)C(=O)N[C@@H](CCC(=O)O)C(=O)N[C@H](C(=O)N[C@@H](CC(N)=O)C(=O)NC(C)(C)C(=O)N[C@@H](CCC(N)=O)C(=O)N[C@H](C(=O)N[C@@H](CC(C)C)C(=O)N[C@@H](C)C(=O)N[C@@H](CCC(N)=O)C(=O)N[C@H](C(N)=O)C(C)C)[C@@H](C)CC)[C@@H](C)O)[C@@H](C)CC)[C@@H](C)CC)C(C)C)C(C)C [compound 228] (Pentanoyl-VLSLD[dV]PIGLK([γGlu-C20 diacid])KILLEQEKQKKQREQAETN[Aib]QILAQV-NH2) |  |  |  |  |
|  | 9.66 | 4 % I | < 6.60 | CC[C@H](C)[C@H](NC(C)=O)C(=O)N[C@H](C(=O)N[C@@H](CC(C)C)C(=O)N[C@@H](CO)C(=O)N[C@@H](CC(C)C)C(=O)N[C@@H](CC(=O)O)C(=O)N[C@@H](C(=O)N1CCC[C@H]1C(=O)N[C@H](C(=O)N[C@@H](CCCCN)C(=O)N[C@@H](CC(C)C)C(=O)N[C@@H](CCCCNC(=O)COCCOCCNC(=O)COCCOCCNC(=O)CC[C@H](NC(=O)CCCCCCCCCCCCCCCCCCC(=O)O)C(=O)O)C(=O)N[C@@H](CCCCN)C(=O)N[C@H](C(=O)N[C@@H](CC(C)C)C(=O)N[C@@H](CC(C)C)C(=O)N[C@@H](CCC(=O)O)C(=O)N[C@@H](CCC(N)=O)C(=O)N[C@@H](CCC(=O)O)C(=O)N[C@@H](CCCCN)C(=O)N[C@@H](CCC(N)=O)C(=O)N[C@@H](CCCCN)C(=O)N[C@@H](C)C(=O)N[C@@H](CCC(N)=O)C(=O)N[C@@H](CCCNC(=N)N)C(=O)N[C@@H](CCC(=O)O)C(=O)N[C@@H](CCC(N)=O)C(=O)N[C@@H](C)C(=O)N[C@@H](CCC(=O)O)C(=O)N[C@H](C(=O)N[C@@H](CC(N)=O)C(=O)NC(C)(C)C(=O)N[C@@H](CCC(N)=O)C(=O)N[C@H](C(=O)N[C@@H](CC(C)C)C(=O)N[C@@H](C)C(=O)N[C@@H](CCC(N)=O)C(=O)N[C@H](C(N)=O)C(C)C)[C@@H](C)CC)[C@@H](C)O)[C@@H](C)CC)[C@@H](C)CC)C(C)C)C(C)C [compound 240] (Ac-IVLSLD[dV]PIKLK([AEEA-AEEA-γGlu-C20 diacid])KILLEQEKQKAQREQAETN[Aib]QILAQV-NH2) |  |  |  |  |
|  | 9.55 | 8 % I | < 6.60 | CC[C@H](C)[C@H](NC(C)=O)C(=O)N[C@H](C(=O)N[C@@H](CC(C)C)C(=O)N[C@@H](CO)C(=O)N[C@@H](CC(C)C)C(=O)N[C@@H](CC(=O)O)C(=O)N[C@@H](C(=O)N1CCC[C@H]1C(=O)N[C@H](C(=O)N[C@@H](CCCCN)C(=O)N[C@@H](CC(C)C)C(=O)N[C@@H](CCCCNC(=O)CC[C@H](NC(=O)CC[C@H](NC(=O)CCCCCCCCCCCCCCCCCCC(=O)O)C(=O)O)C(=O)O)C(=O)N[C@@H](CCCCN)C(=O)N[C@H](C(=O)N[C@@H](CC(C)C)C(=O)N[C@@H](CC(C)C)C(=O)N[C@@H](CCC(=O)O)C(=O)N[C@@H](CCC(N)=O)C(=O)N[C@@H](CCC(=O)O)C(=O)N[C@@H](CCCCN)C(=O)N[C@@H](CCC(N)=O)C(=O)N[C@@H](CCCCN)C(=O)N[C@@H](C)C(=O)N[C@@H](CCC(N)=O)C(=O)N[C@@H](CCCNC(=N)N)C(=O)N[C@@H](CCC(=O)O)C(=O)N[C@@H](CCC(N)=O)C(=O)N[C@@H](C)C(=O)N[C@@H](CCC(=O)O)C(=O)N[C@H](C(=O)N[C@@H](CC(N)=O)C(=O)NC(C)(C)C(=O)N[C@@H](CCC(N)=O)C(=O)N[C@H](C(=O)N[C@@H](CC(C)C)C(=O)N[C@@H](C)C(=O)N[C@@H](CCC(N)=O)C(=O)N[C@H](C(N)=O)C(C)C)[C@@H](C)CC)[C@@H](C)O)[C@@H](C)CC)[C@@H](C)CC)C(C)C)C(C)C [compound 244] (Ac-IVLSLD[dV]PIKLK([γGlu-γGlu-C20 diacid])KILLEQEKQKAQREQAETN[Aib]QILAQV-NH2) |  |  |  |  |
